Test systems include A498; SNB-78; HOP-92; HL-60; CAKI-1; RPMI-8226; OVCAR-3; OVCAR-8; SF-268; SNB-75; COLO 205; SF-539; OVCAR-4; UACC-257; HT-29; K562; HCT-15; MDA-MB-231; MDA-MB-435; MCF7.
What all share (experiment): DTP human tumour cell line panel, 48 h

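96-well plates; 48 h exposure; 5 concentrations. Endpoints by linear interpolation between flanking doses. Not reached: highest tested concentration assigned. At the GI50, growth is halved.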 Activity calls are given as the source filed them. Cut-off read from the data, not from the text of the source: active = GI50 up to about 1.1 µM and inactive = higher. Bounds are passed on as bounds.

One may read the GI50 as the concentration that inhibits growth by half.

Turning to `Nc1nc(-c2ccccc2)cc(-c2ccccc2O)n1`, the GI50 in the assay on A498 is 40.7 µM (inactive); with SNB-78, 76.9 µM (inactive); in the assay with HOP-92, > 100 µM (inactive); with HL-60 it was 16.5 µM (inactive); in the assay on CAKI-1, 34.1 µM (inactive); in the assay with RPMI-8226, 22.6 µM (inactive). The GI50 with OVCAR-3 was 33.5 µM (inactive); with OVCAR-8 it was 39.7 µM (inactive); in the assay with SF-268, 24 µM (inactive); in the assay on SNB-75, 36.6 µM (inactive); in the assay on COLO 205, 43.3 µM (inactive); in the assay with SF-539, 37.4 µM (inactive). The GI50 was 51.6 µM (inactive) in the assay on OVCAR-4, 73.8 µM (inactive) with UACC-257, 33.4 µM (inactive) in the assay on HT-29 and 39.1 µM (inactive) in the assay on K562.
Take `CCCC/C=C1/CCC(CN(C)C)C1=O` (configuration not stated): the GI50 in the assay with A498 was 8.77 µM (inactive); with HCT-15, 0.401 µM; in the assay with SNB-78, 2.3 µM (inactive); with HOP-92, 2.07 µM (inactive); in the assay on HL-60, 0.885 µM (active); with CAKI-1 it was 0.745 µM (active). For the same molecule, the GI50 is 0.0968 µM (active) in the assay with RPMI-8226; 1.94 µM (inactive) in the assay on OVCAR-3; 1.83 µM (inactive) in the assay with OVCAR-8; 2.47 µM (inactive) in the assay on SF-268; 2.82 µM (inactive) with MDA-MB-231; 11 µM (inactive) in the assay on MDA-MB-435. Moreover, the GI50 with SNB-75 is 3.21 µM (inactive); in the assay with COLO 205 it was 1.42 µM (inactive); in the assay on SF-539, 2.48 µM (inactive); in the assay with OVCAR-4, 1.92 µM (inactive); in the assay with UACC-257 it was 2.17 µM (inactive); in the assay with MCF7, 0.525 µM (active). Further, in the assay with K562, the GI50 was 0.701 µM (active).
As for `O=C(Cc1nc2ccccc2s1)C(=O)Nc1cccc(Cl)c1`, the GI50 was > 100 µM (inactive) in the assay with A498; over 100 µM in the assay with HCT-15; > 100 µM (inactive) with SNB-78; > 100 µM (inactive) in the assay with HOP-92; > 100 µM (inactive) in the assay on HL-60; > 100 µM (inactive) in the assay on CAKI-1. The GI50 with RPMI-8226 is > 100 µM (inactive); with OVCAR-3, > 100 µM (inactive); with OVCAR-8, > 100 µM (inactive); in the assay on SF-268 it was > 100 µM (inactive); in the assay on SNB-75, 48.9 µM (inactive); in the assay with COLO 205 it was > 100 µM (inactive). Besides, the GI50 in the assay with SF-539, with OVCAR-4, with UACC-257, in the assay with HT-29 and with K562 was > 100 µM (inactive) throughout.
For the molecule `COc1cc(CCCC(O)COc2cccc3c2C2(O)CCCCCC32)cc(OC)c1` (configuration not stated), the GI50 was 19.9 µM (inactive) in the assay with A498; 17.6 µM in the assay on HCT-15; 20.7 µM (inactive) in the assay on SNB-78; 4.75 µM (inactive) with HOP-92; 22.2 µM (inactive) with HL-60; 20.8 µM (inactive) in the assay with CAKI-1. Besides, the GI50 in the assay on RPMI-8226 was 18.5 µM (inactive); with OVCAR-8, 19.1 µM (inactive); with SF-268, 17.9 µM (inactive); in the assay on SNB-75, 12.1 µM (inactive); in the assay with COLO 205, 2.53 µM (inactive); in the assay on SF-539, 13.4 µM (inactive). In addition, the GI50 with OVCAR-4 was 18.2 µM (inactive); in the assay with UACC-257, 15.6 µM (inactive); in the assay on HT-29, 7.26 µM (inactive); in the assay on K562, 11.6 µM (inactive).
For the molecule `Cc1nc2sccn2c1C(=O)NC(=O)Nc1ccc(Cl)cc1`, the GI50 is > 100 µM (inactive) in the assay with A498; over 100 µM in the assay on HCT-15; 42.9 µM (inactive) in the assay on SNB-78; 31.2 µM (inactive) with HOP-92; > 100 µM (inactive) in the assay on HL-60; > 100 µM (inactive) in the assay on CAKI-1. In addition, the GI50 in the assay on RPMI-8226 is > 100 µM (inactive); with OVCAR-3, 60.3 µM (inactive); in the assay with OVCAR-8, > 100 µM (inactive); with SF-268, 39.6 µM (inactive); in the assay with SNB-75 it was 24.3 µM (inactive); in the assay on COLO 205, > 100 µM (inactive). In addition, the GI50 was 41.2 µM (inactive) in the assay on SF-539; > 100 µM (inactive) in the assay on OVCAR-4; > 100 µM (inactive) with UACC-257; > 100 µM (inactive) in the assay on HT-29; > 100 µM (inactive) with K562.
`O=CC1=CCCC2(C1)OCCO2`: the GI50 in the assay with A498 was > 100 µM (inactive); with HCT-15, over 100 µM; in the assay with SNB-78, > 100 µM (inactive); in the assay with HOP-92, > 100 µM (inactive); in the assay on HL-60, > 100 µM (inactive); in the assay with CAKI-1, > 100 µM (inactive). Also, the GI50 in the assay on RPMI-8226 is > 100 µM (inactive); in the assay with OVCAR-3, > 100 µM (inactive); in the assay on OVCAR-8, > 100 µM (inactive); with SF-268 it was > 100 µM (inactive); with SNB-75, 4.95 µM (inactive); in the assay on COLO 205 it was > 100 µM (inactive). In addition, the GI50 in the assay with SF-539, in the assay on OVCAR-4, in the assay with UACC-257, with HT-29 and in the assay with K562 was > 100 µM (inactive) in each case.
For the molecule `O=S1(=O)CCC2=CC(C(F)(F)F)=CC(C(F)(F)F)=CN21`, the GI50 was 2.08 µM (inactive) with A498; 0.485 µM in the assay on HCT-15; 1.85 µM (inactive) in the assay on SNB-78; 1.15 µM (inactive) in the assay on HOP-92; 0.168 µM (active) in the assay on HL-60; 0.56 µM (active) with CAKI-1. Moreover, the 50% growth inhibitory concentration (GI50) with RPMI-8226 was 0.535 µM (active); in the assay with OVCAR-3, 1.12 µM (active); in the assay on OVCAR-8, 0.308 µM (active); with SF-268, 1.72 µM (inactive); with MDA-MB-231, 2.78 µM (inactive); with MDA-MB-435, 1.82 µM (inactive). In addition, the GI50 in the assay with SNB-75 is 1.71 µM (inactive); in the assay with COLO 205, 0.454 µM (active); with SF-539, 1.42 µM (inactive); in the assay with OVCAR-4, 1.71 µM (inactive); in the assay with UACC-257 it was 2.14 µM (inactive); in the assay on MCF7 it was 0.386 µM (active). Further, the GI50 is 1.53 µM (inactive) with HT-29 and 0.39 µM (active) with K562.
As to `Cc1cccc(-c2nnc3s/c(=C\c4ccc5c(c4)OCO5)c(=O)n23)c1`, the GI50 with A498 was > 100 µM (inactive); with HCT-15 it was over 100 µM; in the assay on SNB-78, > 100 µM (inactive); in the assay on HOP-92 it was > 100 µM (inactive); in the assay on HL-60, > 100 µM (inactive); with CAKI-1, > 100 µM (inactive). Further, the GI50 in the assay with RPMI-8226 is > 100 µM (inactive); in the assay with OVCAR-3, > 100 µM (inactive); with OVCAR-8, > 100 µM (inactive); in the assay with SF-268, > 100 µM (inactive); in the assay on SNB-75, 26.9 µM (inactive); with COLO 205, > 100 µM (inactive). For the same molecule, the GI50 in the assay on SF-539 is > 100 µM (inactive); with OVCAR-4, > 100 µM (inactive); with UACC-257, 29.8 µM (inactive); with K562 it was > 100 µM (inactive).
On to `COc1cccc2nc3c(C(=O)NCCN(C)C)cccc3nc12`, for which the GI50 in the assay with A498 was 9.27 µM (inactive); with HCT-15, 7 µM; with SNB-78, 12.9 µM (inactive); in the assay with HOP-92 it was 6.17 µM (inactive); with HL-60 it was 4.51 µM (inactive); with CAKI-1, 17.1 µM (inactive). Further, the GI50 in the assay with RPMI-8226 is 6.49 µM (inactive); in the assay on OVCAR-3, 18.1 µM (inactive); in the assay with OVCAR-8, 9.12 µM (inactive); with SF-268, 0.713 µM (active); in the assay with SNB-75 it was 12.4 µM (inactive); with COLO 205, 5.2 µM (inactive). Moreover, the GI50 in the assay on SF-539 was 4.27 µM (inactive); in the assay on OVCAR-4, 8.77 µM (inactive); in the assay on UACC-257 it was 6.03 µM (inactive); in the assay on HT-29, 4.63 µM (inactive); in the assay on K562 it was 3.76 µM (inactive).
In the case of `NC(=O)C(c1ccccc1)N1CCOCC1` (configuration not stated), the GI50 in the assay with A498 is > 100 µM (inactive); with HCT-15, over 100 µM; in the assay on SNB-78, > 100 µM (inactive); in the assay with HOP-92, > 100 µM (inactive); with HL-60 it was > 100 µM (inactive); with CAKI-1, > 100 µM (inactive). Also, the GI50 with RPMI-8226, in the assay on OVCAR-3, in the assay on OVCAR-8, in the assay with SF-268, in the assay on SNB-75 and in the assay on COLO 205 was > 100 µM (inactive) throughout. The GI50 in the assay with SF-539, with OVCAR-4, in the assay with UACC-257, with HT-29 and in the assay on K562 was > 100 µM (inactive) in each case.
For `[N-]=[N+]=C1C(=O)C2CC3CC1CC2C3` (configuration not stated), the GI50 with A498 is > 100 µM (inactive); with HCT-15, over 100 µM; in the assay on SNB-78, > 100 µM (inactive); with HOP-92, > 100 µM (inactive); with HL-60, > 100 µM (inactive); in the assay with CAKI-1, > 100 µM (inactive). Besides, the GI50 with RPMI-8226, in the assay with OVCAR-3, with OVCAR-8, in the assay with SF-268, with SNB-75 and in the assay on COLO 205 was > 100 µM (inactive) in each case. Moreover, the GI50 in the assay with SF-539, in the assay on OVCAR-4, in the assay with UACC-257, in the assay with HT-29 and with K562 was > 100 µM (inactive) throughout.
Regarding `CC[C@@]1(O)C(=O)OCc2c1cc1n(c2=O)Cc2cc3cc(O)ccc3nc2-1` [HYDROXYCAMPTOTHECIN], the GI50 in the assay on HCT-15 was 0.295 µM; with SNB-78 it was 0.248 µM (active); in the assay with HOP-92, 0.0277 µM (active); in the assay with HL-60 it was 0.0161 µM (active); in the assay with CAKI-1, 0.00971 µM (active); with OVCAR-8, 0.0142 µM (active). Moreover, the GI50 is 0.867 µM (active) in the assay on MDA-MB-231; 0.0453 µM (active) in the assay with MDA-MB-435; 0.014 µM (active) in the assay with SNB-75; 0.125 µM (active) with COLO 205; 0.00826 µM (active) in the assay with SF-539; 0.092 µM (active) in the assay with OVCAR-4. Moreover, in the assay with MCF7, the GI50 was < 0.0075 µM (active).

Source of the values: ChEMBL document CHEMBL1201862, “PubChem BioAssay data set” (2004).
